Data on 37 compounds can be found in patent US8410126B2, “Pyrimidine inhibitors of PKTK2” (Boehringer Ingelheim International GmbH, priority 2009, dated 2013).

SMILES strings stand for the structures.

The target of the assay is T1, PTK2 (Homo sapiens, UniProt Q05397).
T1 construct: purchased Invitrogen PV3832
The experiment in a line: PTK2 enzyme test Assay 1 (DELFIA, poly-Glu-Tyr substrate, PT60 antibody). In kind it is biochemical. The conditions noted are these: Assay 1 (values without *); 1 h pre-incubation, 50 μM ATP mix, final DMSO 2%. As for the experimental part: This test uses active PTK2 enzyme (Invitrogen Code PV3832) and poly-Glu-Tyr (4:1, Sigma P-0275) as the kinase substrate. The kinase activity is detected through the phosphorylation of the substrate in a DELFIA™ assay. The phosphorylated substrate is detected with the europium-labelled phosphotyrosine antibody PT60 (Perkin Elmer, No.: AD00400).
In order to determine concentration-activity curves with PTK2-inhibitors the compounds are serially diluted in 10% DMSO/H2O and 10 μL of each dilution are placed in each well of a 96-well microtitre plate (clear plate with a U-shaped base, Greiner No. 650101) (the inhibitors are tested in duplicates) and mixed with 10 μL/well of PTK2 kinase (0.01 μg/well). PTK2 kinase has been correspondingly diluted beforehand with kinase dilution buffer (20 mM TRIS/HCl pH 7.5, 0.1 mM EDTA, 0.1 mM EGTA, 0.286 mM sodium orthovanadate, 10% glycerol with the addition of freshly prepared BSA (fraction V, 1 mg/mL) and DTT (1 mM)). The test compound and the PTK2 kinase are pre-incubated for 1 h at RT and shaken at 500 revolutions per min. The reaction is started by the addition of 10 μL/well poly (Glu,Tyr) substrate (25 μg/well poly (Glu, Tyr), 0.05 μg/well biotinylated poly (Glu,Tyr) dissolved in 250 mM TRIS/HCl pH 7.5, 9 mM DTT)—the final concentration of DMSO is 2%. Then 20 μL of ATP Mix (30 mM TRIS/HCl pH 7.5, 0.02% Brij, 0.2 mM sodium orthovanadate, 10 mM magnesium acetate, 0.1 mM EGTA, 1× phosphatase inhibitor cocktail 1 (Sigma, No.: P2850), 50 μM ATP (Sigma, No.: A3377; 15 mM stock solution)) are added. After 1 h of kinase reaction (the plates are shaken at 500 rpm), the reaction is stopped by the addition of 12 μL/well 100 mM EDTA, pH 8.0 and shaken for a further 5 min at RT (500 rpm). 55 μL of the reaction mixture are transferred into a streptavidin plate (Strepta Well High Bind (transparent, 96-well) made by Roche, No.: 11989685001) and incubated for 1 h at RT (shaking at 500 rpm). Then the microtitre plate is washed three times with 200 μL/well D-PBS (Invitrogen, No. 14190). 100 μL of a solution containing DELFIA Eu-N1 Anti-Phosphotyrosine PT60 antibody (Perkin Elmer, No.: AD0040, diluted 1:2000 in DELFIA test buffer (Perkin Elmer, No.: 1244-111)) is then added and the mixture is incubated for 1 h at RT (shaking at 500 rpm). Then the plate is washed three times with 200 μL/well DELFIA washing buffer (Perkin Elmer, No.: 1244-114), 200 μL/well strengthening solution (Perkin Elmer, No.: 1244-105) are added and the mixture is incubated for 10 min at RT (shaking at 300 rpm).
The time-delayed europium fluorescence is then measured in a microtitre plate reader (VICTOR^3, Perkin Elmer). […] Wells that contain test buffer instead of enzyme are used as a control of the background kinase activity.
The IC50 values are determined from analyses of the concentration activity by iterative calculation with the aid of a sigmoid curve analysis algorithm (FIFTY, based on GraphPAD Prism Version 3.03) with a variable Hill coefficient.

T1 sequence (Q05397 whole entry): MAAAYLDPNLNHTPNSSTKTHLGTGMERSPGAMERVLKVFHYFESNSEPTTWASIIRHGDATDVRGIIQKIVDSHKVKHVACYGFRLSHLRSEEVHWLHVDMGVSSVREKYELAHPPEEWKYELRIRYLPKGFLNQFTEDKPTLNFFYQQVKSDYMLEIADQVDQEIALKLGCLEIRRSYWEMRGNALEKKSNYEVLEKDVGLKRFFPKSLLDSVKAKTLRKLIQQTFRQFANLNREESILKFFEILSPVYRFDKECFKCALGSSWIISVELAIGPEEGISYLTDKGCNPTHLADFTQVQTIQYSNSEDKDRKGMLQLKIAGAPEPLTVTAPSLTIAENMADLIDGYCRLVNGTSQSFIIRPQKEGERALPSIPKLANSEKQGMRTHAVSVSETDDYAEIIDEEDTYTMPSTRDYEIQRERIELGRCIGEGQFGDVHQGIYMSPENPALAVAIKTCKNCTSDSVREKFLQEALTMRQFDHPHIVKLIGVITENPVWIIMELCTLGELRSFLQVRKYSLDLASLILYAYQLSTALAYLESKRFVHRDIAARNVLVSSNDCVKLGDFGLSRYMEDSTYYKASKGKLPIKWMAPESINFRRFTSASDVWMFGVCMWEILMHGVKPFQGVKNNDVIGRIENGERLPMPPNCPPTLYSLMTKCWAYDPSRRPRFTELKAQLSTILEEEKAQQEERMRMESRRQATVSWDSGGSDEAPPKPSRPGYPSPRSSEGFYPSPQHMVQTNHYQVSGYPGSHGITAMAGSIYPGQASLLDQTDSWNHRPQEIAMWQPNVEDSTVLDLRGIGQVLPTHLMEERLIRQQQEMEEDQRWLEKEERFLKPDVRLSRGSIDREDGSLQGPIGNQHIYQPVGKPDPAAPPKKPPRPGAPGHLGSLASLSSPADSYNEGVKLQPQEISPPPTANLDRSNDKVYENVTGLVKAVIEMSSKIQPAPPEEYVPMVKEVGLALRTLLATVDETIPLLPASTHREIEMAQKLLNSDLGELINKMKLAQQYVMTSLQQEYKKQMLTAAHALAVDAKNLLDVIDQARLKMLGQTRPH

In general, IC50 refers to the point on the concentration scale where inhibition reaches its midpoint. `COc1cc(C(=O)NC2CCN(C)CC2)ccc1Nc1ncc(C(F)(F)F)c(N[C@@H]2Cc3ccccc3[C@H]2NC(C)=O)n1` [Example I-1]: the IC50 amounted to 2 nM.

`COc1cc(C(=O)NCCN(C)C)ccc1Nc1ncc(C(F)(F)F)c(N[C@@H]2Cc3ccccc3[C@H]2NS(C)(=O)=O)n1` [Example I-3, N-(2-dimethylamino-ethyl)-4-[4-((1R,2R)-1-methanesulphonylamino-indan-2-ylamino)-5-trifluoromethyl-pyrimidin-2-ylamino]-3-methoxy-benzamide] returned an IC50 of 2 nM.

`COc1cc(C(=O)NC2CCN(C)CC2)ccc1Nc1ncc(C(F)(F)F)c(N[C@@H]2Cc3ccccc3[C@H]2N(C)S(C)(=O)=O)n1` [Example I-5, 4-{4-[(1R,2R)-1-(methanesulphonyl-methyl-amino)-indan-2-ylamino]-5-trifluoromethyl-pyrimidin-2-ylamino}-3-methoxy-N-(1-methyl-piperidin-4-yl)-benzamide]: the IC50 came out at 2 nM. `COc1cc(C(=O)NC2CCCN(C)C2)ccc1Nc1ncc(C(F)(F)F)c(N[C@@H]2Cc3ccccc3[C@H]2N(C)S(C)(=O)=O)n1` (stereo partly shown) [Example I-6]: the IC50 was found to be 0.96 nM. In the case of `COc1cc(C(=O)NC2CCC(N3CCN(CC4CC4)CC3)CC2)ccc1Nc1ncc(C(F)(F)F)c(N[C@@H]2Cc3ccccc3[C@H]2N(C)S(C)(=O)=O)n1` (stereo partly shown) [Example I-7] it was 1 nM; in that of `COc1cc(C(=O)NC2CCN(C)CC2)ccc1Nc1ncc(C(F)(F)F)c(N[C@@H]2Cc3ccccc3[C@H]2NS(C)(=O)=O)n1` [Example I-8], 2 nM. In the case of `CNCc1ccc(Nc2ncc(C(F)(F)F)c(N[C@@H]3Cc4ccccc4[C@H]3NS(C)(=O)=O)n2)c(OC)c1` [Example I-9] it was 2 nM; in that of `CNC(=O)c1ccc(Nc2ncc(C(F)(F)F)c(N[C@@H]3Cc4ccccc4[C@H]3NS(C)(=O)=O)n2)c(OC)c1` [Example I-10], 2 nM. The result for `CCN1CCC(NC(=O)c2ccc(Nc3ncc(C(F)(F)F)c(N[C@@H]4Cc5ccccc5[C@H]4NC(C)=O)n3)c(OC)c2)CC1` [Example I-11] reads 2 nM; that for `COc1cc(C(=O)NC2CCC(N3CCN(CC4CC4)CC3)CC2)ccc1Nc1ncc(C(F)(F)F)c(N[C@@H]2Cc3ccccc3[C@H]2NC(C)=O)n1` (stereo partly shown) [Example I-12], 4 nM; that for `COCCN1CCC(NC(=O)c2ccc(Nc3ncc(C(F)(F)F)c(N[C@@H]4Cc5ccccc5[C@H]4NC(C)=O)n3)c(OC)c2)CC1` [Example I-13], 3 nM. `COc1cc(C(=O)NC2CCCN(C)C2)ccc1Nc1ncc(C(F)(F)F)c(N[C@@H]2Cc3ccccc3[C@H]2NC(C)=O)n1` (stereo partly shown) [Example I-14] had an IC50 of 2 nM. In the case of `COc1cc(C(=O)NC2CCOCC2)ccc1Nc1ncc(C(F)(F)F)c(N[C@@H]2Cc3ccccc3[C@H]2NC(C)=O)n1` [Example I-15] it was 4 nM; in that of `COCCNC(=O)c1ccc(Nc2ncc(C(F)(F)F)c(N[C@@H]3Cc4ccccc4[C@H]3NC(C)=O)n2)c(OC)c1` [Example I-16], 2 nM. For `CONC(=O)c1ccc(Nc2ncc(C(F)(F)F)c(N[C@@H]3Cc4ccccc4[C@H]3NC(C)=O)n2)c(OC)c1` [Example I-17], the half-maximal inhibitory concentration (IC50) came to 2 nM. This lies in the single-digit nanomolar range. In the case of `CNC(=O)c1ccc(Nc2ncc(C(F)(F)F)c(N[C@@H]3Cc4ccccc4[C@H]3NC(C)=O)n2)c(OC)c1` [Example I-18] it was 2 nM. In the case of `COc1cc(C(=O)NC2CCC(N3CCOCC3)CC2)ccc1Nc1ncc(C(F)(F)F)c(N[C@@H]2Cc3ccccc3[C@H]2NC(C)=O)n1` (stereo partly shown) [Example I-19] it was 3 nM. For `COc1cc(C(=O)NCCN(C)C)ccc1Nc1ncc(C(F)(F)F)c(N[C@@H]2Cc3ccccc3[C@H]2NC(C)=O)n1` [Example I-20], the IC50 turned out to be 1 nM. In the case of `COc1cc(N2CCN(C)CC2)ccc1Nc1ncc(C(F)(F)F)c(N[C@@H]2Cc3ccccc3[C@H]2NC(C)=O)n1` [Example I-26] it was 2 nM. In the case of `CNC(=O)c1ccc(Nc2ncc(Cl)c(N[C@@H]3Cc4ccccc4[C@H]3N(C)S(C)(=O)=O)n2)c(OC)c1` [Example I-34] it was 7 nM; in that of `COc1cc(CN2CCOCC2)ccc1Nc1ncc(C(F)(F)F)c(N[C@@H]2Cc3ccccc3[C@H]2NC(C)=O)n1` [Example I-38], 2 nM; in that of `COc1cc(N2CCN(C)CC2)ccc1Nc1ncc(C(F)(F)F)c(N[C@@H]2Cc3ccccc3[C@H]2N(C)S(C)(=O)=O)n1` [Example I-39, N-((1R,2R)-2-{2-[2-methoxy-4-(4-methyl-piperazin-1-yl)-phenylamino]-5-trifluoromethyl-pyrimidin-4-ylamino}-indan-1-yl)-N-methyl-methanesulphonamide], 3 nM. `COc1cc(N2CCN(CC(=O)N(C)C)CC2)ccc1Nc1ncc(C(F)(F)F)c(N[C@@H]2Cc3ccccc3[C@H]2N(C)S(C)(=O)=O)n1` [Example I-40] yielded an IC50 of 3 nM. As to `COCCNC(=O)c1ccc(Nc2ncc(C(F)(F)F)c(N[C@@H]3Cc4ccccc4[C@H]3N(C)S(C)(=O)=O)n2)c(OC)c1` [Example I-45], half-maximal inhibition (IC50) was put at 2 nM. The result for `COc1cc(C(=O)NC2CCN(C)CC2)c(F)cc1Nc1ncc(C(F)(F)F)c(N[C@@H]2Cc3ccccc3[C@H]2N(C)S(C)(=O)=O)n1` [Example I-46, 2-fluoro-4-{4-[(1R,2R)-1-(methanesulphonyl-methyl-amino)-indan-2-ylamino]-5-trifluoromethyl-pyrimidin-2-ylamino}-5-methoxy-N-(1-methyl-piperidin-4-yl)-benzamide] reads 2 nM. Turning to `COc1cc(C(=O)NC2CCCN(C)C2)c(F)cc1Nc1ncc(C(F)(F)F)c(N[C@@H]2Cc3ccccc3[C@H]2N(C)S(C)(=O)=O)n1` (stereo partly shown) [Example I-47], it took 3 nM to reach half-maximal inhibition (IC50). In the case of `COc1cc(C(=O)NCCN(C)C)c(F)cc1Nc1ncc(C(F)(F)F)c(N[C@@H]2Cc3ccccc3[C@H]2N(C)S(C)(=O)=O)n1` [Example I-48] it was 1 nM; in that of `CNC(=O)c1cc(OC)c(Nc2ncc(C(F)(F)F)c(N[C@@H]3Cc4ccccc4[C@H]3N(C)S(C)(=O)=O)n2)cc1F` [Example I-49], 6 nM. The result for `COc1cc(C(=O)NC2CCOCC2)c(F)cc1Nc1ncc(C(F)(F)F)c(N[C@@H]2Cc3ccccc3[C@H]2N(C)S(C)(=O)=O)n1` [Example I-50] reads 8 nM; that for `COc1cc(C(=O)NC2CCC(N3CCN(CC4CC4)CC3)CC2)c(F)cc1Nc1ncc(C(F)(F)F)c(N[C@@H]2Cc3ccccc3[C@H]2N(C)S(C)(=O)=O)n1` (stereo partly shown) [Example I-51], 4 nM.

Compound `COc1cc(C(=O)NCCN(C)C)ccc1Nc1ncc(C(F)(F)F)c(N[C@@H]2Cc3ccccc3[C@H]2N(C)S(C)(=O)=O)n1` [Example I-52] gave an IC50 of 1 nM. The result for `COc1cc(C(=O)NC2CCN(C)CC2)c(C)cc1Nc1ncc(C(F)(F)F)c(N[C@@H]2Cc3ccccc3[C@H]2N(C)S(C)(=O)=O)n1` [Example I-53] reads 1 nM; that for `COc1cc(C(=O)NCCN(C)C)c(C)cc1Nc1ncc(C(F)(F)F)c(N[C@@H]2Cc3ccccc3[C@H]2N(C)S(C)(=O)=O)n1` [Example I-54], 0.84 nM. `COc1cc(N2CCN(CC3CC3)CC2)ccc1Nc1ncc(C(F)(F)F)c(N[C@@H]2Cc3ccccc3[C@H]2N(C)S(C)(=O)=O)n1` [Example I-56] gave an IC50 of 3 nM.

For `COc1cc(N2CCN(C3COC3)CC2)ccc1Nc1ncc(C(F)(F)F)c(N[C@@H]2Cc3ccccc3[C@H]2N(C)S(C)(=O)=O)n1` [Example I-57], half-maximal inhibition (IC50) was put at 3 nM. In the case of `COc1cc(C(=O)NCCN(C)C)c(Cl)cc1Nc1ncc(C(F)(F)F)c(N[C@@H]2Cc3ccccc3[C@H]2N(C)S(C)(=O)=O)n1` [Example I-58] it was 4 nM; in that of `COc1cc(C(=O)NOCCN(C)C)ccc1Nc1ncc(C(F)(F)F)c(N[C@@H]2Cc3ccccc3[C@H]2N(C)S(C)(=O)=O)n1` [Example I-59], 0.83 nM.
